How the values were obtained:
[1] = MB-102 pig plasma concentration after IV dosing; type: in vivo; conditions: pig 48019, IV, 3.2 mpk
Description: (§1) Juvenile Yorkshire pigs weighing approximately 25 kg were anesthetized, their body temperature stabilized, and an IV port surgically placed. A region approximately half-way along the line between the hip and knee joint was selected as the injection site and prepared by cleaning the skin and removing any exposed hair by shaving the selected area at least twice. Similarly, the site where two Quantum Leap fluorescent sensors (disclosed in U.S. Pat. No. 10,548,521) were to be positioned (chest) was prepared by washing and shaving. After the skin was dry the sensors were attached with commercially available skin adhesive and background skin auto-fluorescence measurements were recorded. After about 20 minutes of background fluorescence collection the subject animal was dosed either intravenously (animal 48019) or subcutaneously (animals 52771, 53701 09802, or 1539) or intramuscularly (09801) with PBS-1× formulated MB-102 at 3.2 mg/kg. Injection of the appropriate volume took place over about a minute. […] At this point glomerular elimination of MB-102 by the kidneys led to a decrease of fluorescence signal over time. Blood samples (1.5 mL) were taken immediately prior to the introduction of MB-102 (0 minutes) and at 15 minute intervals throughout the procedure. Blood was collected in BD vacutainer K2EDTA tubes, spun to plasma and stored at −80° C. until analyzed. Subsequently, the processed plasma samples were thawed, diluted with PBS-1× and analyzed by HPLC or UPLC and the concentration of MB-102 determined using standard analytical techniques. Further details for each animal are provided in the examples that follow.
Subject pig, 48019, the control animal, was prepared as in Example 6 and dosed IV using 8.2 mL of 11.8 mg/mL MB-102 in PBS-1× (bolus over about 2 min).

[2] = MB-102 pig plasma concentration after intramuscular dosing; type: in vivo; conditions: pig 09801, IM, 3.2 mpk
Description: as §1
Experimental animal Yorkshire pig, 09801, was subject to Intramuscular (IM) administration of MB-102 using substantially the same procedure as Example 8, but substituting a 2 mL syringe equipped with a single 13 mm×27 g needle. […] Blood sampling and processing was as described in Example 8 and the results (Table 1) are plotted in FIG. 6.

[3] = Storage of concentrated MB-102 salt solution at 4° C. (precipitation); type: physicochemical; conditions: sodium salt, 300 mg per mL water (w/v), 4° C. overnight
Description: MB-102 (0.300 g, 0.81 mmol), was placed in a vial (4.0 mL). Water was added (0.8 mL, D.I.) and the mixture sonicated for a brief period of time. To the mixture was added aqueous 6.25 N NaOH (2 equivalents, 1.62 mmol, 0.24 mL, added in portions; 0.020 mL×12 to effect solution) with stirring and brief periods of sonication. […] The final concentration was 300 mg (2R,2′R)-2,2′-((3,6-diaminopyrazine-2,5-dicarbonyl)bis(azanediyl))bis(3-hydroxypropanoic acid), MB-102 per mL water (w/v).
MB-102 (0.30 g, 0.81 mmol) was weighed into a 5 mL v-vial equipped with a Teflon-covered magnetic spin vane. Choline hydroxide in water (Aldrich, 0.43 g of 46 wt %, 1.62 mmol) was added portion-wise with stirring until a solution was obtained. The total weight of the solution was 0.73 g or 64.2 wt % MB-102 di-choline salt (MW: 578.6).

## Nc1nc(C(=O)N[C@H](CO)C(=O)O)c(N)nc1C(=O)N[C@H](CO)C(=O)O [MB-102, 3,6-diamino-2,5-bis{N-[(1R)-1-carboxy-2-hydroxyethyl]carbamoyl}pyrazine]
[1]; Yorkshire, plasma, 3.2 mg/kg, 15 min, read-out: MB-102 Pig Plasma Conc.
  concentration at 15 min: 13000 ng/mL
[1]; Yorkshire, plasma, 3.2 mg/kg, 30 min, read-out: MB-102 Pig Plasma Conc.
  concentration at 30 min: 9200 ng/mL
[1]; Yorkshire, plasma, 3.2 mg/kg, 45 min, read-out: MB-102 Pig Plasma Conc.
  concentration at 45 min: 7830 ng/mL
[1]; Yorkshire, plasma, 3.2 mg/kg, 60 min, read-out: MB-102 Pig Plasma Conc.
  concentration at 60 min: 5880 ng/mL
[1]; Yorkshire, plasma, 3.2 mg/kg, 75 min, read-out: MB-102 Pig Plasma Conc.
  concentration at 75 min: 5430 ng/mL
[1]; Yorkshire, plasma, 3.2 mg/kg, 90 min, read-out: MB-102 Pig Plasma Conc.
  concentration at 90 min: 4680 ng/mL
[1]; Yorkshire, plasma, 3.2 mg/kg, 105 min, read-out: MB-102 Pig Plasma Conc.
  concentration at 105 min: 4000 ng/mL
[1]; Yorkshire, plasma, 3.2 mg/kg, 120 min, read-out: MB-102 Pig Plasma Conc.
  concentration at 120 min: 3340 ng/mL
[1]; Yorkshire, plasma, 3.2 mg/kg, 135 min, read-out: MB-102 Pig Plasma Conc.
  concentration at 135 min: 3250 ng/mL
[1]; Yorkshire, plasma, 3.2 mg/kg, 150 min, read-out: MB-102 Pig Plasma Conc.
  concentration at 150 min: 2700 ng/mL
[1]; Yorkshire, plasma, 3.2 mg/kg, 165 min, read-out: MB-102 Pig Plasma Conc.
  concentration at 165 min: 2410 ng/mL
[1]; Yorkshire, plasma, 3.2 mg/kg, 180 min, read-out: MB-102 Pig Plasma Conc.
  concentration at 180 min: 2200 ng/mL
[1]; Yorkshire, plasma, 3.2 mg/kg, 195 min, read-out: MB-102 Pig Plasma Conc.
  concentration at 195 min: 2000 ng/mL
[1]; Yorkshire, plasma, 3.2 mg/kg, 210 min, read-out: MB-102 Pig Plasma Conc.
  concentration at 210 min: 1910 ng/mL
[1]; Yorkshire, plasma, 3.2 mg/kg, 225 min, read-out: MB-102 Pig Plasma Conc.
  concentration at 225 min: 1690 ng/mL
[1]; Yorkshire, plasma, 3.2 mg/kg, 240 min, read-out: MB-102 Pig Plasma Conc.
  concentration at 240 min: 1510 ng/mL
[1]; Yorkshire, plasma, 3.2 mg/kg, 255 min, read-out: MB-102 Pig Plasma Conc.
  concentration at 255 min: 1400 ng/mL
[1]; Yorkshire, plasma, 3.2 mg/kg, 270 min, read-out: MB-102 Pig Plasma Conc.
  concentration at 270 min: 1320 ng/mL
[1]; Yorkshire, plasma, 3.2 mg/kg, 285 min, read-out: MB-102 Pig Plasma Conc.
  concentration at 285 min: 1140 ng/mL
[1]; Yorkshire, plasma, 3.2 mg/kg, 300 min, read-out: MB-102 Pig Plasma Conc.
  concentration at 300 min: 1110 ng/mL
[1]; Yorkshire, plasma, 3.2 mg/kg, 315 min, read-out: MB-102 Pig Plasma Conc.
  concentration at 315 min: 1000 ng/mL
[1]; Yorkshire, plasma, 3.2 mg/kg, 330 min, read-out: MB-102 Pig Plasma Conc.
  concentration at 330 min: 917 ng/mL
[1]; Yorkshire, plasma, 3.2 mg/kg, 345 min, read-out: MB-102 Pig Plasma Conc.
  concentration at 345 min: 859 ng/mL
[1]; Yorkshire, plasma, 3.2 mg/kg, 360 min, read-out: MB-102 Pig Plasma Conc.
  concentration at 360 min: 819 ng/mL
[1]; 15-360 min
  SUM (plasma conc. over time): 1,188,637 ng/mL*min
[2]; Yorkshire, plasma, intramuscular, 3.2 mg/kg, 15 min, read-out: MB-102 Pig Plasma Conc.
  concentration at 15 min: 10000 ng/mL
[2]; Yorkshire, plasma, intramuscular, 3.2 mg/kg, 30 min, read-out: MB-102 Pig Plasma Conc.
  concentration at 30 min: 8130 ng/mL
[2]; Yorkshire, plasma, intramuscular, 3.2 mg/kg, 45 min, read-out: MB-102 Pig Plasma Conc.
  concentration at 45 min: 6240 ng/mL
[2]; Yorkshire, plasma, intramuscular, 3.2 mg/kg, 60 min, read-out: MB-102 Pig Plasma Conc.
  concentration at 60 min: 5030 ng/mL
[2]; Yorkshire, plasma, intramuscular, 3.2 mg/kg, 75 min, read-out: MB-102 Pig Plasma Conc.
  concentration at 75 min: 3920 ng/mL
[2]; Yorkshire, plasma, intramuscular, 3.2 mg/kg, 90 min, read-out: MB-102 Pig Plasma Conc.
  concentration at 90 min: 3370 ng/mL
[2]; Yorkshire, plasma, intramuscular, 3.2 mg/kg, 105 min, read-out: MB-102 Pig Plasma Conc.
  concentration at 105 min: 2720 ng/mL
[2]; Yorkshire, plasma, intramuscular, 3.2 mg/kg, 120 min, read-out: MB-102 Pig Plasma Conc.
  concentration at 120 min: 2130 ng/mL
[2]; Yorkshire, plasma, intramuscular, 3.2 mg/kg, 135 min, read-out: MB-102 Pig Plasma Conc.
  concentration at 135 min: 1800 ng/mL
[2]; Yorkshire, plasma, intramuscular, 3.2 mg/kg, 150 min, read-out: MB-102 Pig Plasma Conc.
  concentration at 150 min: 1510 ng/mL
[2]; Yorkshire, plasma, intramuscular, 3.2 mg/kg, 165 min, read-out: MB-102 Pig Plasma Conc.
  concentration at 165 min: 1340 ng/mL
[2]; Yorkshire, plasma, intramuscular, 3.2 mg/kg, 180 min, read-out: MB-102 Pig Plasma Conc.
  concentration at 180 min: 1110 ng/mL
[2]; Yorkshire, plasma, intramuscular, 3.2 mg/kg, 195 min, read-out: MB-102 Pig Plasma Conc.
  concentration at 195 min: 946 ng/mL
[2]; Yorkshire, plasma, intramuscular, 3.2 mg/kg, 210 min, read-out: MB-102 Pig Plasma Conc.
  concentration at 210 min: 841 ng/mL
[2]; Yorkshire, plasma, intramuscular, 3.2 mg/kg, 225 min, read-out: MB-102 Pig Plasma Conc.
  concentration at 225 min: 686 ng/mL
[2]; Yorkshire, plasma, intramuscular, 3.2 mg/kg, 240 min, read-out: MB-102 Pig Plasma Conc.
  concentration at 240 min: 578 ng/mL
[2]; Yorkshire, plasma, intramuscular, 3.2 mg/kg, 255 min, read-out: MB-102 Pig Plasma Conc.
  concentration at 255 min: 520 ng/mL
[2]; Yorkshire, plasma, intramuscular, 3.2 mg/kg, 270 min, read-out: MB-102 Pig Plasma Conc.
  concentration at 270 min: 434 ng/mL
[2]; Yorkshire, plasma, intramuscular, 3.2 mg/kg, 285 min, read-out: MB-102 Pig Plasma Conc.
  concentration at 285 min: 373 ng/mL
[2]; Yorkshire, plasma, intramuscular, 3.2 mg/kg, 300 min, read-out: MB-102 Pig Plasma Conc.
  concentration at 300 min: 333 ng/mL
[2]; Yorkshire, plasma, intramuscular, 3.2 mg/kg, 315 min, read-out: MB-102 Pig Plasma Conc.
  concentration at 315 min: 298 ng/mL
[2]; Yorkshire, plasma, intramuscular, 3.2 mg/kg, 330 min, read-out: MB-102 Pig Plasma Conc.
  concentration at 330 min: 261 ng/mL
[2]; Yorkshire, plasma, intramuscular, 3.2 mg/kg, 345 min, read-out: MB-102 Pig Plasma Conc.
  concentration at 345 min: 222 ng/mL
[2]; Yorkshire, plasma, intramuscular, 3.2 mg/kg, 360 min, read-out: MB-102 Pig Plasma Conc.
  concentration at 360 min: 203 ng/mL
[2]; 15-360 min
  SUM (plasma conc. over time): 794,162 ng/mL*min
[3]
  precipitate formation on storage: no precipitate formation

Source: patent US20220143222A1, “SUBCUTANEOUS AND INTRAMUSCULAR ADMINISTRATION OF PYRAZINE COMPOUNDS” (MediBeacon Inc., priority 2020, published 2022)
